Molecules are shown by their SMILES.

Test [1] concerns the target T1, Protein mono-ADP-ribosyltransferase PARP14 (Homo sapiens, UniProt Q460N5). The test can be described thus: Inhibition of recombinant human His6-tagged PARP14 catalytic/WWE domain (1459 to 1801 residues) expressed in Escherichia coli BL21(DE3) preincubated for 15 mins followed by biotinylated NAD+ addition by chemiluminescence assay.
Test [2] addresses T2, Poly [ADP-ribose] polymerase 1 (Homo sapiens, UniProt P09874). The test can be described thus: Inhibition of recombinant human full length His6-tagged PARP1 expressed in Escherichia coli BL21(DE3) preincubated for 15 mins followed by biotinylated NAD+ addition by chemiluminescence assay.
The target in test [3] is T3, Poly [ADP-ribose] polymerase tankyrase-1 (Homo sapiens, UniProt O95271).
T3 sequence (O95271 whole entry): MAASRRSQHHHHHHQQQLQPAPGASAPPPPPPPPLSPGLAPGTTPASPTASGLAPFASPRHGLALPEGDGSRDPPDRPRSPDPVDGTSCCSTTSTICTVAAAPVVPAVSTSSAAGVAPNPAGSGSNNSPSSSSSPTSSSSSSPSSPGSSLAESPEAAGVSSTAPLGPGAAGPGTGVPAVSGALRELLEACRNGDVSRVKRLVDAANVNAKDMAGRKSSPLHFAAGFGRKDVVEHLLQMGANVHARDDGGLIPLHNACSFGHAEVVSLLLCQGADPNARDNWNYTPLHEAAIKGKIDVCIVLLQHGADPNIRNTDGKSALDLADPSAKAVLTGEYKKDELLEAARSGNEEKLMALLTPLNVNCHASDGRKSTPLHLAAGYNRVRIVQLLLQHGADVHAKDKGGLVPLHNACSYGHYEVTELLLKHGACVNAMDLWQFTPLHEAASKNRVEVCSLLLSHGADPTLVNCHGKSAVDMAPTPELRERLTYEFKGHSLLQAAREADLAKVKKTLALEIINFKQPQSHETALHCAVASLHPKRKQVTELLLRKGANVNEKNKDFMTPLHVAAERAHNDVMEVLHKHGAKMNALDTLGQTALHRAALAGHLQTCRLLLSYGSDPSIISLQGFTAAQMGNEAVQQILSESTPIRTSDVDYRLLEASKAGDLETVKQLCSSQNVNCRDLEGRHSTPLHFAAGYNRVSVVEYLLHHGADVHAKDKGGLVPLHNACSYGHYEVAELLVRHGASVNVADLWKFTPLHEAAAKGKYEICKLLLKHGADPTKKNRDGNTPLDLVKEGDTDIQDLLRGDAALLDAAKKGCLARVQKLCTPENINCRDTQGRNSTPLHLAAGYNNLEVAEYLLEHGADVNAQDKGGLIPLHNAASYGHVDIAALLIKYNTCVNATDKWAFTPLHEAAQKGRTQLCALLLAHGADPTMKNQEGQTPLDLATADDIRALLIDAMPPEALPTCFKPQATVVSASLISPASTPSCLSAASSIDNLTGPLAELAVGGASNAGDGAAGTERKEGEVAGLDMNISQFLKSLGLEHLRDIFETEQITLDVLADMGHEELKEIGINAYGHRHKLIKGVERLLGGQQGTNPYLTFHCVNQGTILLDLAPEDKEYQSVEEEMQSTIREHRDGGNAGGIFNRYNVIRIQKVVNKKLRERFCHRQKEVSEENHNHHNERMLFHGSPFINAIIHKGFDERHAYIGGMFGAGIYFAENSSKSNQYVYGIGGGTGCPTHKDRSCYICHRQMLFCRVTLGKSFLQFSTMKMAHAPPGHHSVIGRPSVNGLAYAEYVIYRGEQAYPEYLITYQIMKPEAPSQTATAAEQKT
The test can be described thus: Inhibition of recombinant human His6-tagged PARP5a catalytic domain (1091 to 1325 residues) expressed in Escherichia coli BL21(DE3) preincubated for 15 mins followed by biotinylated NAD+ addition by chemiluminescence assay.

The species entered for test [4] is Homo sapiens. The test can be described thus: Selectivity ratio of IC50 for recombinant human His6-tagged PARP5a catalytic domain (1091 to 1325 residues) to IC50 for recombinant human His6-tagged PARP14 catalytic/WWE domain (1459 to 1801 residues).
The target in test [5] is T2, Poly [ADP-ribose] polymerase 1. The test can be described thus: Inhibition of recombinant human full length His6-tagged PARP1 expressed in Escherichia coli BL21(DE3) at 5 uM preincubated for 15 mins followed by biotinylated NAD+ addition by chemiluminescence assay relative to control.
Test [6] concerns the target T1, Protein mono-ADP-ribosyltransferase PARP14. The test can be described thus: Inhibition of recombinant human His6-tagged PARP14 catalytic/WWE domain (1459 to 1801 residues) expressed in Escherichia coli BL21(DE3) at 5 uM preincubated for 15 mins followed by biotinylated NAD+ addition by chemiluminescence assay relative to control.
Test [7] has as its target T4, Protein mono-ADP-ribosyltransferase PARP12 (Homo sapiens, UniProt Q9H0J9).
T4 sequence (Q9H0J9 whole entry): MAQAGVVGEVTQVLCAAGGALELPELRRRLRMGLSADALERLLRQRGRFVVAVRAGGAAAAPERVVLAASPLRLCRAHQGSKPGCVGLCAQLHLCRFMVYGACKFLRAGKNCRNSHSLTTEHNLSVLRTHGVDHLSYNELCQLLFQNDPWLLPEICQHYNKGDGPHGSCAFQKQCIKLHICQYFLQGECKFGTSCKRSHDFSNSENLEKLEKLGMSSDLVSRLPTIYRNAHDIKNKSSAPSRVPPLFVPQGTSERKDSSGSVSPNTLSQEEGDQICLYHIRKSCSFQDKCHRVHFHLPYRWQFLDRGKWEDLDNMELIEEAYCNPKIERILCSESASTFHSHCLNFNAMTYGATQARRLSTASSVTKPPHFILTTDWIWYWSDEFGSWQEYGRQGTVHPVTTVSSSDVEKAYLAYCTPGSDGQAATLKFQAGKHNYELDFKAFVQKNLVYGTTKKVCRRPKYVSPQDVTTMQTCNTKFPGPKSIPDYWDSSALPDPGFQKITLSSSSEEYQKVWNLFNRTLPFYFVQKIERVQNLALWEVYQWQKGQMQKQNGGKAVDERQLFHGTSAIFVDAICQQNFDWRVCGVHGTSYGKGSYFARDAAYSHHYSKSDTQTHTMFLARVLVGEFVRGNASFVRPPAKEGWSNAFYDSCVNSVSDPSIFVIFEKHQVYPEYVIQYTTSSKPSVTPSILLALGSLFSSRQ
The test can be described thus: Inhibition of His6-tagged PARP12 (unknown origin) preincubated for 15 mins followed by biotinylated NAD+ addition by chemiluminescence assay.

Test [8] deals with T5, Protein mono-ADP-ribosyltransferase PARP15 (Homo sapiens, UniProt Q460N3).
T5 sequence (Q460N3 whole entry): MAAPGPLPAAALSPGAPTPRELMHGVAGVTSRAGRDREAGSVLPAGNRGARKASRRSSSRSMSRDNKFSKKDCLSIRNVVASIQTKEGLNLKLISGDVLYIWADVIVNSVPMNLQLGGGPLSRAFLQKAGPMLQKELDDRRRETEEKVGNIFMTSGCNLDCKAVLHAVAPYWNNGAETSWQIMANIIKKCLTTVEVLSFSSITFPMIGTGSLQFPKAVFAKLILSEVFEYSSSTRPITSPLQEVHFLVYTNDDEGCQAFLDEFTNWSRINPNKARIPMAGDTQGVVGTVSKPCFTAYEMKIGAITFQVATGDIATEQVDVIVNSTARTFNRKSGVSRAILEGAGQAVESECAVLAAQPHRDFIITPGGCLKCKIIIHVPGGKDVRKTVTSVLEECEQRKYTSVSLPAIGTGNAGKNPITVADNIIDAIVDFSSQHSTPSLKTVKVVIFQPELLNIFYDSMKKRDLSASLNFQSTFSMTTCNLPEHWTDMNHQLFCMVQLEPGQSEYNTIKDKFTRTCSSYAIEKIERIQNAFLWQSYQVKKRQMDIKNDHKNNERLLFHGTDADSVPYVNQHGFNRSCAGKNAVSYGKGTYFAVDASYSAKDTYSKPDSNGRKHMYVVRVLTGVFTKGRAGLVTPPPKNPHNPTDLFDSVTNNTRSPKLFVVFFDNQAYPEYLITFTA
The test can be described thus: Inhibition of His6-tagged PARP15 (unknown origin) preincubated for 15 mins followed by biotinylated NAD+ addition by chemiluminescence assay.

Test [9] has as its target T6, Protein mono-ADP-ribosyltransferase PARP16 (Homo sapiens, UniProt Q8N5Y8).
T6 sequence (Q8N5Y8 whole entry): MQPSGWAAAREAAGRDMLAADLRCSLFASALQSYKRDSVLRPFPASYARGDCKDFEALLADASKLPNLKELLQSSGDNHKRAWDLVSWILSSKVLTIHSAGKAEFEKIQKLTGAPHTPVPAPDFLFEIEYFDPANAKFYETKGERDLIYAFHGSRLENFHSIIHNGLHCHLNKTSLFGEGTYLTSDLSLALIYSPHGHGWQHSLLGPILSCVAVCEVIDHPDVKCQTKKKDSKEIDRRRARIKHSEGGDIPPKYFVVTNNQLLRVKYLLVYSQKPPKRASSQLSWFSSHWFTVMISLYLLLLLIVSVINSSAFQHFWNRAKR
The test can be described thus: Inhibition of His6-tagged PARP16 (unknown origin) preincubated for 15 mins followed by biotinylated NAD+ addition by chemiluminescence assay.

T1 sequence (Q460N5 whole entry, the tested form may be a part): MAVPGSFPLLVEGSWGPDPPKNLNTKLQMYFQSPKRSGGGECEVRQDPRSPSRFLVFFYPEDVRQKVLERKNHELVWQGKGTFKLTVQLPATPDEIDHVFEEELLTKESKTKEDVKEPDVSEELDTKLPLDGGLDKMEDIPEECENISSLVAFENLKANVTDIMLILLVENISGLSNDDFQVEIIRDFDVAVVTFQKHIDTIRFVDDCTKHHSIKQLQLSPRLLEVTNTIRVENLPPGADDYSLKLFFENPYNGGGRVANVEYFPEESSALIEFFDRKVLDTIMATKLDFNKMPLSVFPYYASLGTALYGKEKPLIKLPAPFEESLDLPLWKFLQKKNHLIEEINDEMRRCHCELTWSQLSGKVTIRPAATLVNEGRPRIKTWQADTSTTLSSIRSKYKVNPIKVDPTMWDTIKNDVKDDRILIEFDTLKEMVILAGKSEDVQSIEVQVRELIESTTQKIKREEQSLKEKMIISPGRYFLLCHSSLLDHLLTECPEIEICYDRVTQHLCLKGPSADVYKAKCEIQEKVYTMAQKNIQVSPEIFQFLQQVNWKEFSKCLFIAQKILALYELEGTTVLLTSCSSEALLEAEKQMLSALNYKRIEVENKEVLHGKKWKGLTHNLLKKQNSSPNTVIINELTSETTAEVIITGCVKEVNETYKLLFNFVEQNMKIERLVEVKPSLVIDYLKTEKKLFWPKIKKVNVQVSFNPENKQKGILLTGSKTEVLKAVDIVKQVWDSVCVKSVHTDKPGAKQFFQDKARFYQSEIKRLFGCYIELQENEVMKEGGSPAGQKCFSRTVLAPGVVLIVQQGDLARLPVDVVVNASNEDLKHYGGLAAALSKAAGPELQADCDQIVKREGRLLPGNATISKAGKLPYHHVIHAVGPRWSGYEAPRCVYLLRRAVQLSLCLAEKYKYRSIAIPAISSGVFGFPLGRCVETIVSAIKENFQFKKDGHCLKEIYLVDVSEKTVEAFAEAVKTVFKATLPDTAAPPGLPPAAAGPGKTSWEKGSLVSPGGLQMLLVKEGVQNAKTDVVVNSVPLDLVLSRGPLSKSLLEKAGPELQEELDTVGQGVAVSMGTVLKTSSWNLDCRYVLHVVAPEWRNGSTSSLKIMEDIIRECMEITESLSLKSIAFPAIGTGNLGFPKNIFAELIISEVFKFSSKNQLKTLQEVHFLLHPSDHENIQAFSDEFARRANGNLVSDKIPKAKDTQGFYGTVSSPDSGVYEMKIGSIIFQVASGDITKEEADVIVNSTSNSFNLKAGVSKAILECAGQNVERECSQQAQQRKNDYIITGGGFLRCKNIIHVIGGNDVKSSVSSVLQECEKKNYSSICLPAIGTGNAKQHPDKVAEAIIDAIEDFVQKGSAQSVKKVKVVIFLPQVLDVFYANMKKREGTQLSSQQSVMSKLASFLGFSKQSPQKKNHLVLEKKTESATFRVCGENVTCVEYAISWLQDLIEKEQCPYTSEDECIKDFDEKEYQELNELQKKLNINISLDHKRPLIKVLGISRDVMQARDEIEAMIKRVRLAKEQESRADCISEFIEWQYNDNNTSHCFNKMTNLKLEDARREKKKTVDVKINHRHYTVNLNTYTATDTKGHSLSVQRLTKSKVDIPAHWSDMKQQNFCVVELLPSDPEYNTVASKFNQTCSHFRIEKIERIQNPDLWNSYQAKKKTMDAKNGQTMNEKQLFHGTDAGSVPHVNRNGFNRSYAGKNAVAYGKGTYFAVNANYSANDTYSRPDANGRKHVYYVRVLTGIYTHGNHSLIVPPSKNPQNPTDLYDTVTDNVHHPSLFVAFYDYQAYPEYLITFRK
T2 sequence (P09874 whole entry): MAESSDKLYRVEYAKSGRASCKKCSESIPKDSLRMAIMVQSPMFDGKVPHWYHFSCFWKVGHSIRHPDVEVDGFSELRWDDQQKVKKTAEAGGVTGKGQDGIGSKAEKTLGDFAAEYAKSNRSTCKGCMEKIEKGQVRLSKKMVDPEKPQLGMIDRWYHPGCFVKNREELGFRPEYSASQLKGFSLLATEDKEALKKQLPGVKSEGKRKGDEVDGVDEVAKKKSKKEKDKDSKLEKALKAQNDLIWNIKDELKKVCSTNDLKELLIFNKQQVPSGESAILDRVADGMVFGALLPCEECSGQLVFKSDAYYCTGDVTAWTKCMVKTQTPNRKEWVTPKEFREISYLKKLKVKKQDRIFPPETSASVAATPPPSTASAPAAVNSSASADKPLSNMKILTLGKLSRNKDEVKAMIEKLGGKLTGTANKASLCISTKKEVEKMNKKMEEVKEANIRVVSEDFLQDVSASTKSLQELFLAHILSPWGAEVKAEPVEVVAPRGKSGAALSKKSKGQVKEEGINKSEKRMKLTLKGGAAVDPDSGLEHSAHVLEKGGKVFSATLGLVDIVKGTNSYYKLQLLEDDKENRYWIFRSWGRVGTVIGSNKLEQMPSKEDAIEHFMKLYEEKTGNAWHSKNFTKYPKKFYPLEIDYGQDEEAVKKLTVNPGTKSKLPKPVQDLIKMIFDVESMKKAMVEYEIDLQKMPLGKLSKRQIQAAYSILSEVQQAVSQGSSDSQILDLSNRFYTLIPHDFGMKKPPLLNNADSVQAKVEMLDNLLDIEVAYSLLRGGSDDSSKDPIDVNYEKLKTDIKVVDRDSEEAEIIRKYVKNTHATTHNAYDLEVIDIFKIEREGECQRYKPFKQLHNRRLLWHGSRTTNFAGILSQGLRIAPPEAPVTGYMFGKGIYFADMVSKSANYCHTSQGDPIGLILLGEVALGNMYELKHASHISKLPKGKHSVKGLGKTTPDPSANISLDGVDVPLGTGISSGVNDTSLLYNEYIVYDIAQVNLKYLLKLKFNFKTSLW

For `NC(=O)c1cccc(NC(=O)/C=C\C(=O)N2CCN(c3ccc(Cl)cc3)CC2)c1`, the IC50 in [1] (read-out: IC50) is 160 nM; in test [1] (read-out: pIC50 (converted)) it was 617 nM; in test [2], 220 nM; in test [3] (read-out: IC50), 900 nM; in [3] (read-out: pIC50 (converted)) it was 977 nM. Also, in test [4], the Ratio IC50 is 5.6.
In the case of `NC(=O)c1cccc(N2C(=O)CC(N3CCN(c4ccccc4F)CC3)C2=O)c1` (stereo unspecified), the IC50 in test [1] (read-out: IC50) was > 20000 nM.
Turning to `NC(=O)c1cccc(NC(=O)/C=C\C(=O)N2CCC(c3ccc(F)cc3)CC2)c1`, the IC50 in test [1] (read-out: IC50) came out at 270 nM; in test [2], 270 nM; in test [3] (read-out: IC50) it was 8000 nM. Further, the Ratio IC50 in test [4] was determined as 30.
With `NC(=O)c1cccc(NC(=O)/C=C\C(=O)N2CCCC(Oc3ccccc3)C2)c1` (stereo unspecified), in [1] (read-out: IC50), the IC50 came to 1400 nM. The inhibition (as a rule, the drop in the measured response relative to a control, in per cent) in [5] was 90%.
Consider `NC(=O)c1cccc(NC(=O)/C=C\C(=O)N2CCN(c3ccc(-c4ccccc4)cc3)CC2)c1`, for which the IC50 in test [1] (read-out: IC50) was 4200 nM; in [2] it was 800 nM; in test [3] (read-out: IC50), 9800 nM.
As for `NC(=O)c1cccc(NC(=O)/C=C\C(=O)N2CCCCC2c2ccccc2)c1` (stereo unspecified), in test [1] (read-out: IC50), the IC50 stood at 1100 nM.
Regarding `CC(C)(C)OC(=O)N1CCN(C(=O)/C=C\C(=O)Nc2cccc(C(N)=O)c2)CC1`, the IC50 in test [1] (read-out: IC50) turned out to be 370 nM.
Take `CCOC(=O)C1CCCN(C(=O)/C=C\C(=O)Nc2cccc(C(N)=O)c2)C1` (stereo unspecified): the inhibition in [6] worked out at 21%.
In the case of `NC(=O)c1cccc(NC(=O)/C=C\C(=O)N2CCC(c3ccccc3)CC2)c1`, in [1] (read-out: IC50), the IC50 is 2200 nM.
As to `NC(=O)c1cccc(NC(=O)/C=C\C(=O)N2CCN(c3ccccc3F)CC2)c1`, the IC50 in [1] (read-out: IC50) is 410 nM; in test [2], 510 nM; in test [3] (read-out: IC50), 9400 nM. The Ratio IC50 in test [4] was determined as 23.
In the case of `NC(=O)c1cccc(NC(=O)/C=C\C(=O)N2CCC(CCc3ccccc3)CC2)c1`, the values for the IC50 in [1] (read-out: IC50) and in [1] (read-out: pIC50 (converted)) were 650 nM and 676 nM, respectively.
As to `NC(=O)c1cccc(NC(=O)/C=C\C(=O)N2CCCCC2Cc2ccccc2)c1` (stereo unspecified), in test [1] (read-out: IC50), the IC50 was 3500 nM.
Take `NC(=O)c1cccc(NC(=O)/C=C\C(=O)N2CCN(c3ccccc3)CC2)c1`: the IC50 in [1] (read-out: IC50) came out at 900 nM; in [2] it was 370 nM; in test [3] (read-out: IC50), 6000 nM. Besides, the Ratio IC50 in test [4] worked out at 6.7.
Take `NC(=O)c1cccc(NC(=O)/C=C\C(=O)N2CCCC(c3ccccc3)C2)c1` (stereo unspecified): the IC50 in [1] (read-out: IC50) is 690 nM; in [2], 1600 nM; in test [3] (read-out: IC50), 2700 nM; in [3] (read-out: pIC50 (converted)), 575 nM.
Regarding `COc1ccc(N2CCN(C(=O)/C=C\C(=O)Nc3cccc(C(N)=O)c3)CC2)cc1`, the IC50 in test [1] (read-out: IC50) was 3400 nM.
Take `NC(=O)c1cccc(NC(=O)/C=C\C(=O)N2CCN(c3ncccn3)CC2)c1`: in test [1] (read-out: IC50), the IC50 was 2800 nM.
Consider `CCOC(=O)C1CCN(C(=O)/C=C\C(=O)Nc2cccc(C(N)=O)c2)CC1`, for which, in [6], the inhibition came out at 28%.
As to `CCOC(=O)CC1CCN(C(=O)/C=C\C(=O)Nc2cccc(C(N)=O)c2)CC1`, the IC50 was 2400 nM in test [1] (read-out: IC50) and 407 nM in test [1] (read-out: pIC50 (converted)).
For `NC(=O)c1cccc(NC(=O)/C=C\C(=O)N2CCC(Cc3ccccc3)CC2)c1`, the IC50 came out at 450 nM in test [1] (read-out: IC50), 230 nM in test [2] and 4800 nM in test [3] (read-out: IC50). In addition, the Ratio IC50 in test [4] stood at 11.
`NC(=O)c1cccc(NC(=O)/C=C\C(=O)N2CCN(c3ccc(F)cc3)CC2)c1`: the IC50 in [1] (read-out: IC50) was 700 nM; in test [2], 560 nM; in test [3] (read-out: IC50), 2700 nM; in [7] it was 8200 nM; in [8] it was 520 nM; in test [9] it was 560 nM. For the same molecule, the Ratio IC50 in test [4] stood at 3.9.
